Publication PMC4391372 (Journal of agricultural and food chemistry, 2011)

Target: T1, hTAS2R31 (Homo sapiens, UniProt P59538)
T1 sequence (P59538 1-309): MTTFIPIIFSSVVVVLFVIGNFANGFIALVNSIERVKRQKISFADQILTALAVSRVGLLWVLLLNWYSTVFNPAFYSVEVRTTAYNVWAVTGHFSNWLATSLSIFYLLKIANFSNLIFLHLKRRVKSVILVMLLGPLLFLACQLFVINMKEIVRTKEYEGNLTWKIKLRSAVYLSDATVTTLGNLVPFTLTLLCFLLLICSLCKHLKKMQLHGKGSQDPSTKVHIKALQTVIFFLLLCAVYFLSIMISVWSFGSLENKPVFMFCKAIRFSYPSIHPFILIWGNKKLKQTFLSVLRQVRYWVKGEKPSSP
Experiment: HEK-293T cell-based receptor assay

Compound	IC50 [µM]
COc1cc(O)c2c(c1)O[C@H](c1ccc(O)cc1)CC2=O [compound 2, sakuranetin]	5.5 ± 2.5
COc1cc2c(c(O)c1OC)C(=O)C[C@@H](c1ccc(O)cc1)O2 [compound 9, 6-methoxysakuranetin]	10.2 ± 5.4
COc1cc(-c2cc(=O)c3c(O)c(OC)c(O)cc3o2)ccc1O [compound 10, jaceosidin]	11.7 ± 6
